Measurements: patent US20050250715A1, “Remedy” (priority 2002, published 2005)

System: NGF
Test: Enhancing activity for NGF production in L-M cells (NGF in culture medium by enzyme immunoassay)
Assay type: cell-based, murine
Conditions: 20 hours; for Amount of NGF Production (%): control = 100%
Description: (2) The enhancing activity for NGF production of the compound a was assayed. L-M cells (ATCC CCL-1.2) from murine fibroblasts were suspended in an M199 medium (manufactured by Bio Whittaker) containing 0.5% bactopeptone (manufactured by Gibco) so as to have a concentration of 1.5×10^5 cells/mL. The suspension was put in a 96 well plate in an amount of 0.1 mL each well, and the cells were aseptically cultured. After culturing the cells for 3 days, the medium was removed therefrom, and exchanged with an M199 medium containing 0.5% bovine serum albumin (manufactured by Sigma). The compound a was added thereto, and the cells were cultured for 20 hours. After the termination of the culture, the concentration of NGF in the culture medium was assayed by an enzyme immunoassay method (NGF Emax Immuno Assay System, manufactured by Promega). The experiment was carried out twice, and an average value was taken. […] The amount of NGF production of the control was 0.739 ng/mL. As to the control, the concentration in the culture medium was determined in the same manner except that the compound a was not added. It is the same as that of the following examples.

Structure (SMILES) | enhancing activity for NGF production (result in words) | Amount of NGF Production (%) (Concentration of Sample 0.5 mM) | Amount of NGF Production (%) (Concentration of Sample 1.0 mM) | Amount of NGF Production (%) (Concentration of Sample 2 mM)
CC(=O)OC1C(OC2C(O)COC(OC3C(O)C(C)(C)CC4C5=CCC6C7(C)CCC(OC8OC(C(=O)O)C(O)C(O)C8OC8OC(CO)C(O)C(O)C8OC8OC(CO)C(O)C(O)C8O)C(C)(CO)C7CCC6(C)C5(C)CCC43C)C2O)OCC(O)C1O [Compound a, 3-O-[β-D-glucopyranosyl(1→2)-β-D-galactopyranosyl-(1→2)-β-D-glucuronopyranosyl]-22-O-[2-O-acetyl-β-D-xylopyranosyl(1→3)-α-L-arabinopyranosyl]soyasapogenol A] | has an enhancing activity for NGF production | 228.3 | 231.6 | 212.6
CC(=O)OC1C(O)COC(OC2C(O)COC(OC3C(O)C(C)(C)CC4C5=CCC6C7(C)CCC(OC8OC(C(=O)O)C(O)C(O)C8OC8OC(CO)C(O)C(O)C8OC8OC(CO)C(O)C(O)C8O)C(C)(CO)C7CCC6(C)C5(C)CCC43C)C2O)C1O [Compound b, 3-O-[β-D-glucopyranosyl(1→2)-β-D-galactopyranosyl-(1→2)-β-D-glucuronopyranosyl]-22-O-[3-O-acetyl-β-D-xylopyranosyl(1→3)-α-L-arabinopyranosyl]soyasapogenol A] | has an enhancing activity for NGF production | 220.9 | 251.2 | 272.3
CC(=O)OC1COC(OC2C(O)COC(OC3C(O)C(C)(C)CC4C5=CCC6C7(C)CCC(OC8OC(C(=O)O)C(O)C(O)C8OC8OC(CO)C(O)C(O)C8OC8OC(CO)C(O)C(O)C8O)C(C)(CO)C7CCC6(C)C5(C)CCC43C)C2O)C(O)C1O [Compound c, 3-O-[β-D-glucopyranosyl(1→2)-β-D-galactopyranosyl-(1→2)-β-D-glucuronopyranosyl]-22-O-[4-O-acetyl-β-D-xylopyranosyl(1→3)-α-L-arabinopyranosyl]soyasapogenol A] | has an enhancing activity for NGF production | 255.1 | 289.2 | 323.7
CC(=O)OC1C(O)COC(OC2C(O)COC(OC3C(O)C(C)(C)CC4C5=CCC6C7(C)CCC(OC8OC(C(=O)O)C(O)C(O)C8OC8OC(CO)C(O)C(O)C8OC8OC(CO)C(O)C(O)C8O)C(C)(CO)C7CCC6(C)C5(C)CCC43C)C2O)C1OC(C)=O [Compound d, 3-O-[β-D-glucopyranosyl(1→2)-β-D-galactopyranosyl-(1→2)-β-D-glucuronopyranosyl]-22-O-[2,3-di-O-acetyl-β-D-xylopyranosyl(1→3)-α-L-arabinopyranosyl]soyasapogenol A] | has an enhancing activity for NGF production | 255.8 | 281.1 | 276.5
CC(=O)OC1COC(OC2C(O)COC(OC3C(O)C(C)(C)CC4C5=CCC6C7(C)CCC(OC8OC(C(=O)O)C(O)C(O)C8OC8OC(CO)C(O)C(O)C8OC8OC(CO)C(O)C(O)C8O)C(C)(CO)C7CCC6(C)C5(C)CCC43C)C2O)C(OC(C)=O)C1O [Compound e, 3-O-[β-D-glucopyranosyl(1→2)-β-D-galactopyranosyl-(1→2)-β-D-glucuronopyranosyl]-22-O-[2,4-di-O-acetyl-β-D-xylopyranosyl(1→3)-α-L-arabinopyranosyl]soyasapogenol A] | has an enhancing activity for NGF production | 214.0 | 233.7 | 230.1
CC(=O)OC1COC(OC2C(O)COC(OC3C(O)C(C)(C)CC4C5=CCC6C7(C)CCC(OC8OC(C(=O)O)C(O)C(O)C8OC8OC(CO)C(O)C(O)C8OC8OC(CO)C(O)C(O)C8O)C(C)(CO)C7CCC6(C)C5(C)CCC43C)C2O)C(O)C1OC(C)=O [Compound f, 3-O-[β-D-glucopyranosyl(1→2)-β-D-galactopyranosyl-(1→2)-β-D-glucuronopyranosyl]-22-O-[3,4-di-O-acetyl-β-D-xylopyranosyl(1→3)-α-L-arabinopyranosyl]soyasapogenol A] | has an enhancing activity for NGF production | 204.5 | 208.8 | 218.5
CC(=O)OCC1OC(OC2C(O)COC(OC3C(O)C(C)(C)CC4C5=CCC6C7(C)CCC(OC8OC(C(=O)O)C(O)C(O)C8OC8OC(CO)C(O)C(O)C8OC8OC(CO)C(O)C(O)C8O)C(C)(CO)C7CCC6(C)C5(C)CCC43C)C2O)C(O)C(OC(C)=O)C1OC(C)=O [Compound g, 3-O-[β-D-glucopyranosyl(1→2)-β-D-galactopyranosyl-(1→2)-β-D-glucuronopyranosyl]-22-O-[3,4,6-tri-O-acetyl-β-D-glucopyranosyl(1→3)-α-L-arabinopyranosyl]soyasapogenol A] | has an enhancing activity for NGF production | 295.4 | 277.2 | 247.6
CC(=O)OCC1OC(OC2C(O)COC(OC3C(O)C(C)(C)CC4C5=CCC6C7(C)CCC(OC8OC(C(=O)O)C(O)C(O)C8OC8OC(CO)C(O)C(O)C8OC8OC(CO)C(O)C(O)C8O)C(C)(CO)C7CCC6(C)C5(C)CCC43C)C2O)C(OC(C)=O)C(OC(C)=O)C1OC(C)=O [Compound h, 3-O-[β-D-glucopyranosyl(1→2)-β-D-galactopyranosyl-(1→2)-β-D-glucuronopyranosyl]-22-O-[2,3,4,6-tetra-O-acetyl-β-D-glucopyranosyl(1→3)-α-L-arabinopyranosyl]soyasapogenol A] | has enhancing activity for NGF production | 273.3 | 301.7 | 307.2
CC1(C)C[C@@H](O)[C@]2(C)CC[C@]3(C)C(=CC[C@@H]4[C@@]5(C)CC[C@H](O[C@@H]6O[C@H](C(=O)O)[C@@H](O)[C@H](O)[C@H]6O[C@@H]6O[C@H](CO)[C@H](O)[C@H](O)[C@H]6O[C@@H]6O[C@H](CO)[C@@H](O)[C@H](O)[C@H]6O)[C@@](C)(CO)[C@@H]5CC[C@]43C)[C@@H]2C1 [Compound i, 3-O-[β-D-glucopyranosyl(1→2)-β-D-galactopyranosyl-(1→2)-β-D-glucuronopyranosyl]-soyasapogenol B] | has enhancing activity for NGF production |  | 116.8 | 169.4
C[C@@H]1O[C@@H](O[C@H]2[C@H](O[C@H]3[C@H](O[C@H]4CC[C@@]5(C)[C@@H](CC[C@]6(C)[C@@H]5CC=C5[C@@H]7CC(C)(C)C[C@@H](O)[C@]7(C)CC[C@]56C)[C@@]4(C)CO)O[C@H](C(=O)O)[C@@H](O)[C@@H]3O)O[C@H](CO)[C@H](O)[C@@H]2O)[C@H](O)[C@H](O)[C@H]1O [Compound j, 3-O-[α-L-rhamnopyranosyl(1→2)-β-D-galactopyranosyl-(1→2)-β-D-glucuronopyranosyl]-soyasapogenol B] | has enhancing activity for NGF production | 138.2 | 176.4 | 212.5
CC1(C)CC(=O)C2(C)CCC3(C)C(=CCC4C5(C)CCC(OC6OC(C(=O)O)C(O)C(O)C6OC6OC(CO)C(O)C(O)C6OC6OC(CO)C(O)C(O)C6O)C(C)(CO)C5CCC43C)C2C1 [Compound k, 3-O-[β-D-glucopyranosyl(1→2)-β-D-galactopyranosyl-(1→2)-β-D-glucuronopyranosyl]-soyasapogenol E] | has enhancing activity for NGF production |  | 115.9 | 456.3
CC1OC(OC2C(OC3C(OC4CCC5(C)C(CCC6(C)C5CC=C5C7CC(C)(C)CC(=O)C7(C)CCC56C)C4(C)CO)OC(C(=O)O)C(O)C3O)OC(CO)C(O)C2O)C(O)C(O)C1O [Compound l, 3-O-[α-L-rhamnopyranosyl(1→2)-β-D-galactopyranosyl-(1→2)-β-D-glucuronopyranosyl]-soyasapogenol E] | has enhancing activity for NGF production |  | 145.9 | 531.2
